From patent US5656603A (Loyola University of Chicago, priority 1995, dated 1997)

How the values were obtained:
Assay in all cases: Aminopeptidase P inhibition, release of arginine from Arg-Pro-Pro (fluorescent assay)
Type in all cases: biochemical
[1] = target: T1, partially purified human lung membrane-bound aminopeptidase P (Homo sapiens, UniProt O43895)
T1 construct: from tissue; host or cells: human lung microsomes
Method: (§1) The IC50 of the compound of the present invention in relation to aminopeptidase P was also determined. […] The specificity of the compound of the present invention for other aminopeptidases was similarly determined as described in the Experimental Procedures herein.
(§2) Enzymes--Membrane-bound aminopeptidase P was purified to homogeneity from bovine lung (14) and from rat lung. Partially purified membrane-bound aminopeptidase P from human lung was obtained by treatment of lung microsomes with phosphatidylinositol-specific phospholipase C (B. thuringiensis) (ICN, Costa Mesa, Calif.) followed by centrifugation as described previously (14). Membrane dipeptidase was purified from rat lung microsomes (manuscript in preparation). Recombinant E. coli aminopeptidase P (22) and purified lamb kidney prolyl oligopeptidase (23) were generally supplied by Dr. Tadashi Yoshimoto (Nagasaki University). Purified porcine kidney prolidase and purified porcine kidney aminopeptidase M was obtained from Sigma (St. Louis, Mo.).
(§3) Enzyme Kinetics--Aminopeptidase P activity was determined by measuring the release of arginine from Arg-Pro-Pro by a fluorescent assay described previously (14). […] Each mixture was run in duplicate. Aliquots were removed from each incubation mixture at various times and assayed for the amount of arginine present to determine the reaction velocity. In general, reaction velocities were calculated from data representing less than 20% cleavage of substrate. Ki and Ki ' (=αKi) were determined from plots of 1/v versus concentration of inhibitor "i" (26) and S/v versus concentration of inhibitor "i" (27), respectively. These parameters were also determined from the slope replot and 1/v-intercept replot, respectively, of the 1/v versus 1/S plot (28). […] The values from the two treatments of the data were averaged for each experiment. Experiments for each enzyme preparation were performed twice and the results averaged.

[2] = target: T2, purified rat lung membrane-bound aminopeptidase P (Rattus norvegicus, UniProt Q99MA2)
T2 construct: from tissue; host or cells: rat lung
T2 sequence (Q99MA2 23-674): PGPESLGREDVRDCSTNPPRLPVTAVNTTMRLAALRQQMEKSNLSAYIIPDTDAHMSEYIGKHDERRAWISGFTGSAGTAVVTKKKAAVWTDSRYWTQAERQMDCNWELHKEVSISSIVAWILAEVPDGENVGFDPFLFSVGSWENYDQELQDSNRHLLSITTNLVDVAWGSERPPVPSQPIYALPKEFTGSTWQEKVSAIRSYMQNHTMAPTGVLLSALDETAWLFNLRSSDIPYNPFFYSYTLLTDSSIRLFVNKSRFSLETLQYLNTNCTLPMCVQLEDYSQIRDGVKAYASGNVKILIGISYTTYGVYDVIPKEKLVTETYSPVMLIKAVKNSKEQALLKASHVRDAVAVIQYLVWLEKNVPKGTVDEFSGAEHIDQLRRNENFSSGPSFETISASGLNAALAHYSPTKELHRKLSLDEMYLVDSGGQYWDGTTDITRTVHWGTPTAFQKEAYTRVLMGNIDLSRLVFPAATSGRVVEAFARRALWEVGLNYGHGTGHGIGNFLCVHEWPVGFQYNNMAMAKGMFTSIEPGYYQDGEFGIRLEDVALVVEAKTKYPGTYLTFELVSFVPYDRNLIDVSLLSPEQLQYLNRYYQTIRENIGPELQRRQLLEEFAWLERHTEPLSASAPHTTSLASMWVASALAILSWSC
Method: as §1, §2, §3

[3] = target: T3, purified bovine lung membrane-bound aminopeptidase P (Bos taurus, UniProt E1B735)
T3 construct: from tissue; host or cells: bovine lung
T3 sequence (E1B735 22-673): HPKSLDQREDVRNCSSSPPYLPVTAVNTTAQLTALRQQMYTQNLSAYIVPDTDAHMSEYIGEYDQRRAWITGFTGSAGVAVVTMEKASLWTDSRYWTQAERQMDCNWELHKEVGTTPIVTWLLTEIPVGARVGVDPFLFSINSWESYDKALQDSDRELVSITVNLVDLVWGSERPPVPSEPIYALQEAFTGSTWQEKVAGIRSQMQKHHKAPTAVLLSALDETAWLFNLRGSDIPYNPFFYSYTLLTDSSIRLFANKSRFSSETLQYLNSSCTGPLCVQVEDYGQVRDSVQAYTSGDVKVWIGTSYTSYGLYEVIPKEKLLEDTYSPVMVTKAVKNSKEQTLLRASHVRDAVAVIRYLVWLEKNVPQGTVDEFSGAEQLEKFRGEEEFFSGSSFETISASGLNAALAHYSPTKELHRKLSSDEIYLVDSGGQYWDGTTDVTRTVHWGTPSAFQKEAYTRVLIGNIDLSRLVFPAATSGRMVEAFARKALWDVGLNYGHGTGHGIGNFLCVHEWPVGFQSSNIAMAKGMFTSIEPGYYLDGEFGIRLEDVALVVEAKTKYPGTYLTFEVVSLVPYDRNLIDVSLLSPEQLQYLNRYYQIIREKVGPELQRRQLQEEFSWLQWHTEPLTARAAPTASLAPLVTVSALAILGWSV
Method: The IC50 of the compound of the present invention in relation to aminopeptidase P was also determined. […] The specificity of the compound of the present invention for other aminopeptidases was similarly determined as described in the Experimental Procedures herein. […] The following enzymes had IC50 values>800 μM: aminopeptidase A, angiotensin converting enzyme, dipeptidyl-peptidase I-like activity, bestatin-sensitive/amastatin-insensitive membrane dipeptidase (29), microsomal dipeptidase, endopeptidase 24.11, endopeptidase 24.15, and prolyl oligopeptidase.
as §2
(§4) Enzyme Kinetics--Aminopeptidase P activity was determined by measuring the release of arginine from Arg-Pro-Pro by a fluorescent assay described previously (14). […] Each mixture was run in duplicate. Aliquots were removed from each incubation mixture at various times and assayed for the amount of arginine present to determine the reaction velocity. In general, reaction velocities were calculated from data representing less than 20% cleavage of substrate. Ki and Ki ' (=αKi) were determined from plots of 1/v versus concentration of inhibitor "i" (26) and S/v versus concentration of inhibitor "i" (27), respectively. These parameters were also determined from the slope replot and 1/v-intercept replot, respectively, of the 1/v versus 1/S plot (28). See e.g., FIG. 1B. The values from the two treatments of the data were averaged for each experiment. Experiments for each enzyme preparation were performed twice and the results averaged.

[4] = target: T4, recombinant E. coli aminopeptidase P (Escherichia coli, UniProt P15034)
T4 construct: supplied by Dr. Tadashi Yoshimoto (Nagasaki University)
Source text: as §2, §4

T4 sequence (P15034 whole entry): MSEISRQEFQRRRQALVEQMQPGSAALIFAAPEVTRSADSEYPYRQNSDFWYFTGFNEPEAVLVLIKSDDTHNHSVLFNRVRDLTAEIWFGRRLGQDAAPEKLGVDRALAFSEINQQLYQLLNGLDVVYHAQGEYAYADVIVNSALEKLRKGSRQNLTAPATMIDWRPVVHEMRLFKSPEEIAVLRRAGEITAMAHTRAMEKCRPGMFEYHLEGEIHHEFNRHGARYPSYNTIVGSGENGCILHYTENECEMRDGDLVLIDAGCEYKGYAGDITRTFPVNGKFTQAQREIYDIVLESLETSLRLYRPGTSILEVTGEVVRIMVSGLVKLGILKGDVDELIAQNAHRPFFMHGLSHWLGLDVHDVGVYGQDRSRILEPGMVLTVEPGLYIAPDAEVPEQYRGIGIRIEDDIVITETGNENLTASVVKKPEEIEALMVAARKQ
T1 sequence (O43895 22-674): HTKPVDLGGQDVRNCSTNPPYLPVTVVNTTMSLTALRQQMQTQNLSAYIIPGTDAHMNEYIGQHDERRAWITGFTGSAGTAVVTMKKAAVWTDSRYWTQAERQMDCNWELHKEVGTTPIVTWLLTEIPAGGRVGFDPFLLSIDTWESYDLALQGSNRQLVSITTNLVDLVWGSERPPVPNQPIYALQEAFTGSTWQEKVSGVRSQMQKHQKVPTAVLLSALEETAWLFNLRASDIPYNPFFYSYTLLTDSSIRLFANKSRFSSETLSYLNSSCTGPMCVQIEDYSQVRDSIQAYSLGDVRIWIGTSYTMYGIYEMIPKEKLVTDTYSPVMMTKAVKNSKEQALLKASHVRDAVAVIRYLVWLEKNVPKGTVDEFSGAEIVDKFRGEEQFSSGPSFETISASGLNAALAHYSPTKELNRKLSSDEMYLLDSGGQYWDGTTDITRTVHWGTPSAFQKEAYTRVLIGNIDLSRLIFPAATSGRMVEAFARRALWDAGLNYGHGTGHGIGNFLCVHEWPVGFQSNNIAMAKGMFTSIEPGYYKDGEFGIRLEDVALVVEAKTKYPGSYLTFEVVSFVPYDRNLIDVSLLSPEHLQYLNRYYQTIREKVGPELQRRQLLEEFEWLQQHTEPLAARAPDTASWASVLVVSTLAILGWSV

SMILES: C[C@H](NC(=O)[C@@H]1CCCN1C(=O)[C@@H]1CCCN1C(=O)[C@@H](O)[C@H](N)Cc1ccccc1)C(N)=O [apstatin, N-[(2S, 3R)-3-amino-2-hydroxy-4-phenylbutanoyl]-L-prolyl-L-prolyl-Lalaninamide]
- type of inhibition ([1]; human lung aminopeptidase P): linear mixed-type
- α (αKi = equilibrium constant for enzyme-inhibitor binding at infinite substrate concentration) ([1]; human lung, partially purified membrane-bound form): 11.
- dependence of inhibition on Mn+2 [2]: not dependent on the presence of Mn^+2
- reversibility of inhibition ([2]; 100-fold dilution of a preincubated enzyme-apstatin mixture): indicating reversibility
- effect of preincubation on degree of inhibition (time-dependent or slow-tight binding inhibition) ([2]; preincubation of rat aminopeptidase P for up to 2 hr. at 4° C. before addition of substrate): did not increase the degree of inhibition
- type of inhibition ([2]; rat lung aminopeptidase P): linear mixed-type
- α (αKi = equilibrium constant for enzyme-inhibitor binding at infinite substrate concentration) ([2]; rat lung, purified membrane-bound form): 5.1
- Ki ([2]; rat lung, purified membrane-bound form, substrate Arg-Pro-Pro, 0.1 M Hepes pH 8.0, 39° C.): 2.6 µM
- IC50 ([3]; bovine lung aminopeptidase P, cleavage of 0.5 μM Arg-Pro-Pro in 0.1M Hepes, pH 8.0 at 37° C.): 9.4 µM
- type of inhibition ([3]; bovine lung aminopeptidase P, slope and 1/v-axis intercept replots): linear mixed-type
- α (αKi = equilibrium constant for enzyme-inhibitor binding at infinite substrate concentration) ([3]; bovine lung, purified membrane-bound form): 4.2
- Ki ([3]; bovine lung, purified membrane-bound form, substrate Arg-Pro-Pro, 0.1 M Hepes pH 8.0, 39° C.): 7.8 µM
- α (αKi = equilibrium constant for enzyme-inhibitor binding at infinite substrate concentration) ([4]; E. coli, recombinant): 2.5
- Ki ([4]; E. coli, recombinant, substrate Arg-Pro-Pro, 0.1 M Hepes pH 8.0, 39° C.): 14 µM
- type of inhibition ([4]; recombinant E. coli aminopeptidase P): linear mixed-type
